Measurements published in article PMC7396987, “Biological Activity of Pseudovitamin B12 on Cobalamin-Dependent Methylmalonyl-CoA Mutase and Methionine Synthase in Mammalian Cultured COS-7 Cells” (Molecules, 2020).
pKd: −log10 of the molar value.

Molecular target: T1, human MS (hMS; recombinant FLAG-tagged methionine synthase) (Homo sapiens, UniProt Q99707)
T1 construct: gene MTR; full-length ORF from human brain cerebral cortex cDNA in p3xFLAG-Myc-CMV (p3xFLAG-hMS), N-terminal 3xFLAG tag kept; expressed in COS-7 cells, apoenzyme in cell homogenate (low endogenous monkey MS background)
T1 sequence (Q99707 2-1265 limits assumed): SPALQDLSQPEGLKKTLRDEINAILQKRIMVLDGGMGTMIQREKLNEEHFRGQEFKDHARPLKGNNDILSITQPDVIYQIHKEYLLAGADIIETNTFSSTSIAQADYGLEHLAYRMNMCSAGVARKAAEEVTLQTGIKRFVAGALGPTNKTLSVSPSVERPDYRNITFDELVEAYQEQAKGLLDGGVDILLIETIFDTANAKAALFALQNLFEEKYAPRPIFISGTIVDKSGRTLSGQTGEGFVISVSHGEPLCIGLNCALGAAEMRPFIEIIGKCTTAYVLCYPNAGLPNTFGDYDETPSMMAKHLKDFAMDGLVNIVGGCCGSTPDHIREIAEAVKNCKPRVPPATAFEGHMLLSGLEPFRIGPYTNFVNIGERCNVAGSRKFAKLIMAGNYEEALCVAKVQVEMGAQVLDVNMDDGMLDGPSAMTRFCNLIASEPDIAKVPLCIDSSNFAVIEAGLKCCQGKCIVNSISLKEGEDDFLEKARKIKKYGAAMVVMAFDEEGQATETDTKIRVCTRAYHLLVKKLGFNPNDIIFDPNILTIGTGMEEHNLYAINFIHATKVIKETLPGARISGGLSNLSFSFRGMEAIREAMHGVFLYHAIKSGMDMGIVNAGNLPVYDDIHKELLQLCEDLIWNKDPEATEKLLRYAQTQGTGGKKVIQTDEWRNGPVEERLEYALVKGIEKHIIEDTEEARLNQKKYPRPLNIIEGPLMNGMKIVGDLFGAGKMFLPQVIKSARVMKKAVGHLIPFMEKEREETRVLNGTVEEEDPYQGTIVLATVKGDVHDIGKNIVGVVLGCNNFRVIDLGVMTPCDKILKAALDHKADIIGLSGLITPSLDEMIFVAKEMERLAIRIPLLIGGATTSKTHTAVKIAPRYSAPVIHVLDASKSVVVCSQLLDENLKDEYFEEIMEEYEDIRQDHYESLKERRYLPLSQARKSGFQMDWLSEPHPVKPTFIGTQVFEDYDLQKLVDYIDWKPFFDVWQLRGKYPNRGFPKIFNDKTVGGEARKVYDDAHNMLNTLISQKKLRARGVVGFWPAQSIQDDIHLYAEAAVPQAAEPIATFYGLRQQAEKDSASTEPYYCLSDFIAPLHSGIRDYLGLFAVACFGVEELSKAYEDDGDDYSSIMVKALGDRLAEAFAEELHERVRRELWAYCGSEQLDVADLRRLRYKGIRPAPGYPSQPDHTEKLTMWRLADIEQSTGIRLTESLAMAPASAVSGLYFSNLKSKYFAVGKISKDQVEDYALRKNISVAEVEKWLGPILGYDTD
Test: activation of apo-MS in cell homogenate, HPLC activity assay, saturation fit
Assay type: biochemical
Details: cobalamin reduced by titanium citrate; substrate 5-methyltetrahydrofolate; homogenate of MS cDNA-transfected COS-7 cells grown without OH-Cbl; read-out: apparent Kd

pKd: ~4.58
Substance: (Ade)OH-Cba [compound 6]
